Earlier results on two compounds are cited in patent US20190282540A1, “TARGETED DRUG DELIVERY” (NOXOPHARM LIMITED, priority 2016, published 2019).

Data set [1] deals with wide range of cancer cell types. The conditions noted are these: fold relative to genistein.
The conditions of data set [2]: [14C] idronoxil given orally, target dose 20 mg/kg.
The conditions of data set [3]: in vivo, following dietary challenge.

For `Oc1ccc(C2=Cc3ccc(O)cc3OC2)cc1` [Idronoxil, 2H-1-Benzopyran-7-0,1,3-(4-hydroxyphenyl)], the “potency as an anti-cancer agent compared to genistein” value in data set [1] is “about 10 ×”. Besides, the “levels of isotope in the brain and spinal cord” value in data set [2] is “below the limit of reliable measurement”. Under “intravenously administered, second-pass liver metabolism”, the conjugation result is “completely conjugated”. In addition, the “conversion into water-soluble conjugates” value (orally administered, gut mucosa transferase activity and first-pass liver metabolism) is listed as “completely converted into water-soluble conjugates”.

`O=c1c(-c2ccc(O)cc2)coc2cc(O)cc(O)c12` [genistein]: the brain-to-blood ratio in data set [3] is 0.04.
